Measured values: ChEMBL document CHEMBL1177713, “Discovery of 3-[2-(imidazo[1,2-b]pyridazin-3-yl)ethynyl]-4-methyl-N-{4-[(4-methylpiperazin-1-yl)methyl]-3-(trifluoromethyl)phenyl}benzamide (AP24534), a potent, orally active pan-inhibitor of breakpoint cluster region-abelson (BCR-ABL) kinase including the T315I gatekeeper mutant” (J Med Chem, 2010)

Key:
Rattus norvegicus [1] = test: Dose normalized AUC (0 to 24 hrs) in CD rat at 15 mg/kg, po by LC-MS/MS analysis; format: ADME, organism-based; set-up: time < 24 hr, dose 15 mg/kg, route oral; settings: in vivo
BaF3 [2] = test: cells; settings: Mus musculus, BaF3, 72 h
Description: Antiproliferative activity against mouse BA/F3 cells expressing wild type ABL after 3 days by MTS assay

Rattus norvegicus [3] = test: (§1) Cmax in CD rat at 15 mg/kg, po by LC-MS/MS analysis; format: ADME, organism-based; set-up: dose 15 mg/kg, route oral; settings: in vivo, BLD = below limit of detection
[4] = Volume of distribution in CD rat at 5 mg/kg, iv by LC-MS/MS analysis; format: ADME, organism-based; set-up: dose 5 mg/kg, route intravenous; settings: in vivo
BaF3 [5] = test: cells; settings: Mus musculus, BaF3, 72 h; remark: listed apart in the source
Description: Antiproliferative activity against mouse BA/F3 cells after 3 days by MTS assay

[6] = Clearance in CD rat at 5 mg/kg, iv by LC-MS/MS analysis; format: ADME, organism-based; set-up: dose 5 mg/kg, route intravenous; settings: in vivo
BaF3 [7] = test: cells; settings: Mus musculus, BaF3, 72 h; remark: listed apart in the source
Description: Antiproliferative activity against mouse BA/F3 cells expressing ABL T315I mutant after 3 days by MTS assay

[8] = Half life in CD rat at 5 mg/kg, iv by LC-MS/MS analysis; format: ADME, organism-based; set-up: dose 5 mg/kg, route intravenous; settings: in vivo
K562 = test: cells; settings: Homo sapiens, K562, 72 h
Description: Antiproliferative activity against human K562 cells expressing wild type ABL after 3 days by MTS assay

[9] = Oral bioavailability in CD rat at 15 mg/kg by LC-MS/MS analysis; format: ADME, organism-based; settings: in vivo
[10] = Half life in CD rat at 15 mg/kg, po by LC-MS/MS analysis; format: ADME, organism-based; set-up: dose 15 mg/kg, route oral; settings: in vivo
[11] = as §1; format: ADME, organism-based; set-up: dose 15 mg/kg, route oral; settings: CD, in vivo
[12] = Tmax in CD rat at 15 mg/kg, po by LC-MS/MS analysis; format: ADME, organism-based; set-up: dose 15 mg/kg, route oral; settings: in vivo
Mus musculus [13] = test: Plasma concentration in mouse at 30 mg/kg, po after 24 hrs by LC-MS/MS analysis
Mus musculus [14] = test: Plasma concentmouseion in CD mouse at 30 mg/kg, po after 6 hrs by LC-MS/MS analysis
Mus musculus [15] = test: Plasma concentmouseion in CD mouse at 30 mg/kg, po after 2 hrs by LC-MS/MS analysis

AUC (Rattus norvegicus [1]; BLD = below limit of detection)	IC50 (BaF3 [2])	Cmax (Rattus norvegicus [3])	Vd [4]	IC50 (BaF3 [5])	clearance [6]	IC50 (BaF3 [7])	half-life [8]	IC50 (K562)	AUC (Rattus norvegicus [1])	bioavailability [9]	half-life [10]	Cmax [11]	Tmax [12]	concentration at 24 h (Mus musculus [13])	concentration at 6 h (Mus musculus [14])	concentration at 2 h (Mus musculus [15])	Structure (SMILES)
BLD	3.9 nM	BLD	17.7 L/kg	1860 nM	40.7 mL/min/kg	31 nM	5 h										Cc1ccc(C(=O)Nc2ccc(CN3CCN(C)CC3)c(C(F)(F)F)c2)cc1C#Cc1cnc2[nH]c(=O)[nH]c2c1
						295 nM		1.4 nM									Cc1cn(-c2cc(NC(=O)c3ccc(C)c(/C=C/n4cnc5c(N)ncnc54)c3)cc(C(F)(F)F)c2)cn1
	1 nM		13.1 L/kg	1160 nM	17 mL/min/kg	7.3 nM	8.9 h		518 ng·h/mL/mg/kg	53%	22.3 h	215 ng/mL	6 h	8.8 ng/mL	387 ng/mL	622 ng/mL	CCN1CCN(Cc2ccc(NC(=O)c3ccc(C)c(C#Cc4cnc5cccnn45)c3)cc2C(F)(F)F)CC1
	6.1 nM		3.1 L/kg	6290 nM	6.17 mL/min/kg	35 nM	5.9 h		1707.5 ng·h/mL/mg/kg	62.3%	11.6 h	1180 ng/mL	6 h	163 ng/mL	2100 ng/mL	2480 ng/mL	CN1CCN(Cc2ccc(NC(=O)c3ccc(F)c(C#Cc4cnc5cccnn45)c3)cc2C(F)(F)F)CC1
